# Molecular target: human plasma kallikrein (Homo sapiens, UniProt P03952)
# Assay: Kallikrein inhibition FLINT assay with quenched AMC peptide substrate Z-Gly-Pro-Arg-AMC (end point EP or kinetic KIN reads)
# Assay type: biochemical
# Details: kinetic reads at 5 min intervals over 30 min; read-out: Kallikrein (KIN) IC50
# Method in brief: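 Enzyme and compound were preincubated 30 min before adding 50 μM AMC substrate in pH 7.5 Tris/NaCl/CaCl2/BSA/CHAPS buffer. AMC release was read at 30 min endpoint or every 5 min.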
# Sequence of human plasma kallikrein (P03952 391-638 limits assumed): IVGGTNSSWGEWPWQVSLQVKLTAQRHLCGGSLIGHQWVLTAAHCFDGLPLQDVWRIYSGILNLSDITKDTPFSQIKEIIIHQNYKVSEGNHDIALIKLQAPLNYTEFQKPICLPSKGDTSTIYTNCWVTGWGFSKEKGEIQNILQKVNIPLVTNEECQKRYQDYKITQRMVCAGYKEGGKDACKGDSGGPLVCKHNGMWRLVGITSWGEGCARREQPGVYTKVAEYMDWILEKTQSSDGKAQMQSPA
# Sequence of human plasma kallikrein (P03952 20-390 partner limits assumed): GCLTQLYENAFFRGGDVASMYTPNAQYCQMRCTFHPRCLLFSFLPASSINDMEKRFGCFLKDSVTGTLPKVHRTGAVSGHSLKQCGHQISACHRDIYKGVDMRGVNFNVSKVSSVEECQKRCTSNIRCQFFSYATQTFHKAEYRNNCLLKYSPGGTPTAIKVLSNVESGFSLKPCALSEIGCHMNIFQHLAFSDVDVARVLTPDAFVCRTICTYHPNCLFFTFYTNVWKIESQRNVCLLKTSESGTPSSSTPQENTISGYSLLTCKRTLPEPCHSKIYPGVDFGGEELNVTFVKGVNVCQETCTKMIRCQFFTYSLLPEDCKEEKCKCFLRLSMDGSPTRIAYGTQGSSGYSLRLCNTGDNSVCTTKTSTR
row,IC50,Structure (SMILES)
1,84 nM,"[O-][n+]1ccc(-c2cnn(C(CC3CC3)c3ccc(-c4c(-n5cnnn5)ccc(Cl)c4F)c[n+]3[O-])c2)cc1 (single isomer, unassigned) [Example P280]"
2,5.5 nM,NC(=O)c1ccc(-c2cnn(C(Cc3ncco3)c3ccc(-c4c(-n5cc(C(F)(F)F)nn5)ccc(Cl)c4F)c[n+]3[O-])c2)cc1F (stereo not drawn) [Example P909]
3,18.3 nM,COC(=O)Nc1ccc(-c2cnn(C(Cc3ccc(Cl)cc3)c3ccc(-c4c(-n5cnnn5)ccc(Cl)c4F)c[n+]3[O-])c2)cc1 (stereo not drawn) [Example P94]
4,13.5 nM,"O=C1CCCN1CC(c1ccc(-c2c(-n3cnnn3)ccc(Cl)c2F)c[n+]1[O-])n1cc(-c2ccnc(C(F)(F)F)c2)cn1 (single isomer, unassigned) [Example P364]"
5,29.1 nM,COC(=O)Nc1ccc(-c2cnn(C(Cc3ccn(C)n3)c3ccc(-c4c(-n5cnnn5)ccc(Cl)c4F)c[n+]3[O-])c2)cc1 (racemic) [Example P327]
6,59.5 nM,[O-][n+]1cc(-c2c(-n3cnnn3)ccc(Cl)c2F)ccc1C(Cn1cc(F)cn1)n1cc(-c2ccnc(C(F)(F)F)c2)cn1 (stereo not drawn) [Example P332]
7,55.9 nM,"CN(CC(c1ccc(-c2c(-n3cnnn3)ccc(Cl)c2F)c[n+]1[O-])n1cc(-c2ccnc(C(F)(F)F)c2)cn1)C(=O)OCc1ccccc1 (single isomer, unassigned) [Example P375]"
8,140 nM,"Cn1ccc(CC(c2ccc(-c3c(-n4cnnn4)ccc(Cl)c3F)c[n+]2[O-])n2cc(-c3ccnc(C(F)(F)F)c3)cn2)n1 (single isomer, unassigned) [Example P378]"
9,4.9 nM,"O=C(O)c1ccc(-c2cnn(C(Cc3ccn(C(F)F)n3)c3ccc(-c4c(C(F)F)ccc(Cl)c4F)c[n+]3[O-])c2)cc1 (single isomer, unassigned) [Example Q71]"
10,43.9 nM,[O-][n+]1cc(-c2c(-n3cnnn3)ccc(Cl)c2F)ccc1C(CCOC(F)F)n1cc(-c2ccncn2)cn1 (stereo not drawn) [Example P367]
11,62.7 nM,"Nc1cnc(-c2cnn(C(CCOC(F)F)c3ccc(-c4c(-n5cc(C(F)(F)F)nn5)ccc(Cl)c4F)c[n+]3[O-])c2)c(F)n1 (single isomer, unassigned) [Example P833]"
12,8.9 nM,Cn1nccc1-c1cnn(C(CCOC(F)F)c2ccc(-c3c(-n4cnnn4)ccc(Cl)c3F)c[n+]2[O-])c1 (stereo not drawn) [Example P487]
13,15.3 nM,[O-][n+]1cc(-c2cc(Cl)ccc2-n2cnnn2)ccc1C(Cc1ccc(Cl)cc1)n1cc(-c2ccncc2)cn1 (stereo not drawn) [Example P171]
14,66.2 nM,[O-][n+]1cc(-c2c(-n3cc(Cl)nn3)ccc(Cl)c2F)ccc1[C@@H](Cn1cc(F)cn1)n1cc(-c2c(F)cnn2C(F)F)cn1 [Example P631]
15,29.9 nM,"[O-][n+]1cc(-c2c(-n3cnnn3)ccc(Cl)c2F)ccc1C(C(O)c1ccccc1)n1cc(-c2ccnn2C(F)F)cn1 (single isomer, unassigned) [Example P713]"
16,1.7 nM,NC(=O)c1ccn(CC(c2ccc(-c3c(-n4cnnn4)ccc(Cl)c3F)c[n+]2[O-])n2cc(-c3ccncc3)cn2)n1 (stereo not drawn) [Example P443]
17,19.1 nM,[O-][n+]1cc(-c2c(-n3cnnn3)ccc(Cl)c2F)ccc1C(Cn1cc(F)cn1)n1cc(-c2ccnc(C(F)(F)F)c2)cn1 (stereo not drawn) [Example P275]
18,302 nM,[O-][n+]1cc(-c2c(-n3cnnn3)ccc(Cl)c2F)ccc1C(CC1CC1)n1cc(-c2ccnn2C(F)F)cn1 (stereo not drawn) [Example P542]
19,572 nM,"CN(CC(c1ccc(-c2c(-n3cnnn3)ccc(Cl)c2F)c[n+]1[O-])n1cc(-c2ccnc(C(F)(F)F)c2)cn1)C(=O)C1CC1 (single isomer, unassigned) [Example P425]"
20,39.3 nM,"NC(=O)C1CC1CC(c1ccc(-c2c(-n3cnnn3)ccc(Cl)c2F)c[n+]1[O-])n1cc(-c2ccc(N)nc2F)cn1 (single isomer, unassigned) [Example P340]"
21,32.9 nM,[O-][n+]1cc(-c2c(-n3cnnn3)ccc(Cl)c2F)ccc1[C@@H](Cc1ccc(C(F)(F)F)nc1)n1cc(-c2cncn2C(F)F)cn1 [Example P785]
22,180 nM,COc1ccc(C2CC2CC(c2ccc(-c3cc(Cl)ccc3-n3cnnn3)c[n+]2[O-])n2cc(-c3ccc(C(=O)O)cc3)cn2)cc1 (stereo not drawn) [Example P239]
23,9.1 nM,NC(=O)c1cnn(CC(c2ccc(-c3c(-n4cnnn4)ccc(Cl)c3F)c[n+]2[O-])n2cc(-c3ccnc(C(F)(F)F)c3)cn2)c1 (stereo not drawn) [Example P483]
24,151 nM,[O-][n+]1cc(-c2c(-n3cc(Cl)nn3)ccc(Cl)c2F)ccc1[C@@H](Cn1cccn1)n1cc(-c2cnnn2C(F)F)cn1 [Example P685]
25,54.3 nM,[O-][n+]1cc(-c2c(-n3cnnn3)ccc(Cl)c2F)ccc1C(Cc1ccc(C(F)(F)F)nc1)n1cc(-c2ccnn2C(F)F)cn1 (stereo not drawn) [Example P753]
26,6.5 nM,"NC(=O)c1ccc(-c2cnn(C(Cc3ccn(C(F)F)n3)c3ccc(-c4c(-n5cc(C(F)(F)F)nn5)ccc(Cl)c4F)c[n+]3[O-])c2)cc1F (single isomer, unassigned) [Example P906]"
27,22.4 nM,"O=C1CCCN1CC(c1ccc(-c2c(-n3cnnn3)ccc(Cl)c2F)c[n+]1[O-])n1cc(-c2cc[n+]([O-])cc2)cn1 (single isomer, unassigned) [Example P244]"

row,IC50,Structure (SMILES)
1,2.1 nM,Cn1ccc(CC(c2ccc(-c3c(-n4cnnn4)ccc(Cl)c3F)c[n+]2[O-])n2cc(-c3ccnc(C(F)(F)F)c3)cn2)n1 (stereo not drawn) [Example P377]
2,41.6 nM,Cn1nncc1-c1cnn([C@H](CCOC(F)F)c2ccc(-c3c(-n4cc(C(F)(F)F)nn4)ccc(Cl)c3F)c[n+]2[O-])c1 [Example P761]
3,54.9 nM,[O-][n+]1cc(-c2c(-n3cnnn3)ccc(Cl)c2F)ccc1[C@@H](CCOC(F)F)n1cc(-c2cnn(C(F)F)n2)cn1 [Example P674]
4,76.2 nM,Cn1nncc1-c1cnn([C@H](Cc2ccn(C(F)F)n2)c2ccc(-c3c(-n4cc(C(F)(F)F)nn4)ccc(Cl)c3F)c[n+]2[O-])c1 [Example P792]
5,30.7 nM,"COC(=O)N(C)CC(c1ccc(-c2c(-n3cnnn3)ccc(Cl)c2F)c[n+]1[O-])n1cc(-c2ccnc(F)c2)cn1 (single isomer, unassigned) [Example P356]"
6,397 nM,[O-][n+]1cc(-c2c(-n3cnnn3)ccc(Cl)c2F)ccc1C(CC1CC1)n1cc(-c2ccnnc2)cn1 (stereo not drawn) [Example P397]
7,11.8 nM,NC(=O)c1ccc(-c2cnn(C(Cn3cccn3)c3ccc(-c4c(-n5cc(C(F)(F)F)nn5)ccc(Cl)c4F)c[n+]3[O-])c2)cc1F (stereo not drawn) [Example P948]
8,228 nM,"Nc1ncc(-c2cnn(C(CC3CC3)c3ccc(-c4c(-n5cnnn5)ccc(Cl)c4F)c[n+]3[O-])c2)cc1F (single isomer, unassigned) [Example P194]"
9,3.2 nM,"COC(=O)Nc1ccc(-c2cnn(C(Cn3cccn3)c3ccc(-c4c(-n5cnnn5)ccc(Cl)c4F)c[n+]3[O-])c2)cc1 (single isomer, unassigned) [Example P272]"
10,5.5 nM,COC(=O)Nc1ccc(-c2cnn(C(Cn3ccccc3=O)c3ccc(-c4c(-n5cnnn5)ccc(Cl)c4F)c[n+]3[O-])c2)cc1 (stereo not drawn) [Example P305]
11,30.1 nM,Cn1cncc1-c1cnn(C(Cn2cc(F)cn2)c2ccc(-c3c(-n4cnnn4)ccc(Cl)c3F)c[n+]2[O-])c1 (stereo not drawn) [Example P502]
12,64.9 nM,"O=C(O)c1ccc(-c2cnn(C(c3ccc(-c4cc(Cl)ccc4-n4cnnn4)c[n+]3[O-])C(O)c3ccccc3)c2)cc1 (single isomer, unassigned) [Example P118]"
13,649 nM,COC(=O)N1CCCC(c2cnn(C(CC3CC3)c3ccc(-c4c(-n5cnnn5)ccc(Cl)c4F)c[n+]3[O-])c2)C1 (stereo not drawn) [Example P108]
14,23.7 nM,[O-][n+]1cc(-c2c(-n3cnnn3)ccc(Cl)c2F)ccc1C(Cn1ccc(C(F)(F)F)n1)n1cc(-c2ccnc(F)c2)cn1 (stereo not drawn) [Example P357]
15,4.1 nM,NC(=O)COc1ccc(CC(c2ccc(-c3cc(Cl)ccc3-n3cnnn3)c[n+]2[O-])n2cc(-c3ccc(C(=O)O)cc3)cn2)cc1 (stereo not drawn) [Example P138]
16,3.3 nM,"Nc1ccc(-c2cnn(C(Cn3cc(F)cn3)c3ccc(-c4c(-n5cnnn5)ccc(Cl)c4F)c[n+]3[O-])c2)c(F)n1 (single isomer, unassigned) [Example P416]"
17,4 nM,[O-][n+]1cc(-c2c(-n3cnnn3)ccc(Cl)c2F)ccc1[C@@H](Cc1ccc(F)cc1)n1cc(-c2cnnn2C(F)F)cn1 [Example P599]
18,755 nM,O=C(O)C1CCN(C(=O)C2CC2CC(c2ccc(-c3c(-n4cnnn4)ccc(Cl)c3F)c[n+]2[O-])n2cc(-c3ccccc3)cn2)CC1 (stereo not drawn) [Example P215]
19,420 nM,"Nc1ccc(-c2cnn(C(Cn3cc(F)cn3)c3ccc(-c4c(C(F)F)ccc(Cl)c4F)c[n+]3[O-])c2)c(F)n1 (single isomer, unassigned) [Example Q26]"
20,12.2 nM,O=C(O)c1ccc(-c2cnn(C(Cc3nccs3)c3ccc(-c4c(-n5cc(C(F)(F)F)nn5)ccc(Cl)c4F)c[n+]3[O-])c2)cc1F (stereo not drawn) [Example P941]
21,0.9 nM,[O-][n+]1cc(-c2c(-n3cnnn3)ccc(Cl)c2F)ccc1[C@@H](CCOC(F)F)n1cc(-c2scnc2Cl)cn1 [Example P582]
22,0.3 nM,"NC(=O)c1ccc(-c2cnn(C(Cc3ccn(C(F)F)n3)c3ccc(-c4c(-n5cc(C(F)(F)F)nn5)ccc(Cl)c4F)c[n+]3[O-])c2)cc1 (single isomer, unassigned) [Example P908]"
23,25 nM,[O-][n+]1cc(-c2c(-n3cnnn3)ccc(Cl)c2F)ccc1[C@@H](CCOC(F)F)n1cc(-c2ccn(C(F)F)n2)cn1 [Example P563]
24,36.2 nM,[O-][n+]1cc(-c2c(-n3cnnn3)ccc(Cl)c2F)ccc1C(Cn1cc(F)cn1)n1cc(-c2ccnc(C(F)(F)F)n2)cn1 (stereo not drawn) [Example P469]
25,17.4 nM,Cn1cc(CC(c2ccc(-c3c(-n4cnnn4)ccc(Cl)c3F)c[n+]2[O-])n2cc(-c3ccnc(C#N)c3)cn2)cn1 (stereo not drawn) [Example P408]
26,6.5 nM,[O-][n+]1cc(-c2c(-n3cnnn3)ccc(Cl)c2F)ccc1[C@@H](Cc1ccc(C(F)(F)F)nc1)n1cc(-c2ccnn2C(F)F)cn1 [Example P777]
27,2.5 nM,"O=C(O)c1ccc(-c2cnn(C(Cc3ccn(C(F)F)n3)c3ccc(-c4c(-n5cc(Cl)nn5)ccc(Cl)c4F)c[n+]3[O-])c2)cc1 (single isomer, unassigned) [Example P898]"

# Reference: US11814364B2, “Pyridine N-oxide derivatives useful as factor XIa inhibitors” (Janssen Pharmaceutica NV, priority 2021, dated 2023)
